The subject of one data set is Cryptosporidium parvum. Nature of the data set: C. parvum growth inhibition, nonpolarized HCT-8 coculture assay. The data set is classed as cell-based. An excerpt: Information regarding C. parvum growth inhibition by BKIs, the hollow fiber model, liquid chromatography–tandem mass spectrometry (LC-MS/MS) methods, and the interferon γ (IFN-γ) knockout (KO) mouse model of C. parvum infection has been described in detail previously [[15], [20–23]]. Information on BKI permeability, LC-MS/MS quantification of elacridar, and quantification of Cryptosporidium by polymerase chain reaction analysis is described in the Supplementary Materials. Unless noted otherwise, statistical significance was determined with an unpaired Student t test, using a significance level of 0.05.
To evaluate the potential impact of P-gp efflux on BKI1318 in vitro efficacy, in vitro assays with polarized and nonpolarized HCT-8 cells were evaluated. The nonpolarized HCT-8 coculture assay to screen anti-Cryptosporidium drug candidates has been previously reported by us in detail. […] Based on the reported elacridar half maximal inhibitor concentration for the inhibition of P-gp, the P-gp activity was predicted to be reduced with both elacridar concentrations. […] Elacridar alone had no effect on C. parvum levels.

Data set [1] can be described thus: In vitro solubility at pH 2 and 6.5. The data set is classed as physicochemical. Conditions: pH 2, represents stomach; read-out: Solubility (pH 2). The method, then: Figure 1. Structures, in vitro efficacy, and physicochemical properties of bumped kinase inhibitors (BKIs). […] Solubilities for each BKI were measured at pH 2 and 6.5, to represent the stomach and small intestinal environments, respectively. The human effective permeability (Peff) was predicted as described in Materials and Methods.

Data set [2] can be described thus: Caco-2 trans-well apparent permeability assay. The class given is in vitro ADME. The conditions noted are these: human, pH 7.4. The method, then: To initially characterize the permeability of BKIs 1294, 1369, and 1318, the software MedChem Designer (Simulations +, Lancaster, CA) was used to predict the Peff. The in vitro apparent permeability (Papp) was carried out by Absorption Systems LP (Exton, PA) with a Caco-2 trans-well assay. Caco-2 cells (clone C2BBe1) were obtained from American Type Culture Collection (Manassas, VA) were grown to confluence on collagen-coated, microporous membranes in 12-well assay plates. The permeability assay buffer was Hanks’ balanced salt solution (HBSS) containing 10 mM HEPES and 15 mM glucose at a pH of 7.4. The buffer in the receiver chamber also contained 1% bovine serum albumin. The dosing solution concentration was 5 µM BKI in assay buffer, and the cell monolayers were dosed on the apical side (A?B) or basolateral side (B?A) and incubated at 37°C with 5% CO2 in a humidified incubator. After 120 minutes, samples were taken from the donor and receiver chambers in duplicate. The Papp was calculated with equation (1) and the percent recovery with equation (2).
Papp = (dCr/dt) × Vr/(A × CA) (1)
Percent Recovery = 100 × ((Vr × Cr^final) + (Vd × Cd^final))/(Vd × […]) (2)
where dCr/dt is the slope of the cumulative concentration in the receiver compartment versus time in µM s^-1; Vr is the volume of the receiver compartment in cm^3; Vd is the volume of the donor compartment in cm^3; A is the area of the insert (1.13 cm^2 for 12-well); CA is the average of the nominal dosing concentration and the measured 120 minute donor concentration in µM; CN is the nominal concentration of the dosing solution in µM; Cr^final is the cumulative receiver concentration in µM at the end of the incubation period; Cd^final is the concentration of the donor in µM at the end of the incubation period.
(§1) To ensure no damage was inflicted to the cell monolayers during the flux period, lucifer yellow flux was also measured post-experimentally for each monolayer. To determine whether BKIs 1294, 1369, and 1318 were substrates of P-gp in vitro, P-gp efflux was characterized using the Caco-2 permeability assay protocol with a few modifications. The dosing solution concentration was 5 μM of BKI in the assay buffer +/- 1 μM valspodar. Cells were first pre-incubated for 30 minutes with HBSS containing +/- 1 μM valspodar. Cell monolayers were dosed on the apical side (A?B) or basolateral side (B?A), and incubated at 37°C with 5% CO2 in a humidified incubator. Samples were taken from the donor and receiver chambers at 120 minutes. Each determination was performed in duplicate.
For orientation: Caco-2 cells form a polarised layer with tight junctions and transporters.

A further data set concerns the target T1, P-gp (Homo sapiens, UniProt P08183).
T1 construct: endogenous in cells; host or cells: Caco-2 cells (clone C2BBe1, ATCC); assay run by Absorption Systems LP
In words: Caco-2 P-gp efflux assay +/- valspodar. The class given is in vitro ADME. The conditions noted are these: Caco-2.
From the text: Given the well-known role of P-gp in the efflux of many diverse drugs, the adenosine triphosphate–binding cassette (ABC) transporter was specifically chosen for initial studies, to identify the transporter responsible for BKI1318’s relatively low Papp. A Caco-2 system with overexpression of P-gp was used to verify the role of P-gp in BKI1318 transport (Supplementary Table 2). […] It should be noted that this experiment characterized the importance of P-gp with a single concentration of BKI1318. The kinetics of BKI1318 transport mediated by P-gp are still unknown, and it is not clear how the fraction of absorption mediated by P-gp transport will change with different concentrations of BKI1318.
as §1

Data set [3] deals with C. parvum. In words: Hollow fiber in vitro Cryptosporidium culture with polarized HCT-8 cells. The data set is classed as cell-based, Cryptosporidium parvum. The method, then: C. parvum was cultured using a hollow fiber bioreactor modified for evaluation of potential chemotherapeutic compounds [[21–23]]. Briefly, the system used a 20-kD MWCO polysulfone fiber cartridge (FiberCell Systems, Frederick, MD). HCT-8 cells were grown on the outer surface of the fibers (extracapillary space), and reservoirs were used to provide nutrients to the cells. When the glucose concentration decreased to at least 2 g/L, the extracapillary space was inoculated with 10^6C. parvum (Iowa isolate, Bunch Grass Farms, Deary, ID). […] Compound concentration was reduced over time by the flow of medium through the extracapillary and intracapillary spaces. Samples were removed from the extracapillary space once per day for evaluation of parasite numbers.
C. parvum growth was determined by analysis of the amount of C. parvum 18S-rRNA present and compared to the HCT-8 18S-rRNA as previously described^3. Briefly this was performed by centrifugation at 14,000 x g for 5 min of 0.5 mL samples collected from the extracapillary space (ECS). The pellet was resuspended in 100 µL of iScript buffer and subject to 6-freeze/thaw cycles comprising 1 min in liquid nitrogen followed by 1.5 min at 70 °C. The lysate was collected by centrifugation at 16,162 x g for 5 min, and the RNA purified according to the manufacturer’s instructions (iScriptTM, RT-qPCR sample preparation kit, Bio-Rad Laboratories). C. parvum was enumerated by quantitating the Cp18S-rRNA using the following specific forward and reverse primers - Cp18S-995F: 5’-[…]-3’ and Cp18S-1206R: 5’-[…]-3’ and compared to the human Hs18S-rRNA using the following primer sets - Hs18S-F1373: 5’-[…]-3’ and Hs18S-R1561: 5’-[…]-3’. The amount of 18S-rRNA was determined using 5 ng samples by RT-qPCR as described the manufacturer instructions using a Luna Universal One-Step® RT-qPCR kit (New England Biologics) and a Quant Studio 6 Flex 44 instrument. The cell number is calculated from the CT means using a set of standards prepared from 10^4, 10^5, and 10^6 C. parvum oocysts and compared to 10^4, 10^5, and 10^6 HCT-8 cells.

Data set [4] deals with C. parvum. The arrangement: method as in PMID 28329187. Conditions: previously published study; cited from earlier work.
The next data set relates to Cryptosporidium. Details: method as in PMID 28329187. Conditions: cited from earlier work.
A short description of data set [5]: Mouse gastrointestinal tissue pharmacokinetics. The data set is classed as in vivo, mice. Conditions: mouse, oral; for AUC(0-t): read-out: AUC0-12; for Cmax: read-out: Observed Cmax; for Tmax: read-out: Tmax.
Method: At multiple time points following BKI1318 administration, mice were euthanized, and the GI tract was separated into segments corresponding to the duodenum, jejunum, ileum, and cecum/colon. […] At 0.5, 1, 2, 4, 8, and 12 hours, three mice in each group were sacrificed by cervical dislocation, and the duodenum, jejunum, ileum, and cecum/ascending colon were immediately collected. Each section of the GI tract was flushed with Dulbecco's phosphate-buffered saline, weighed, and placed in storage at -80°C. On the day of homogenization, 0.9% NaCl was added to each sample to achieve 200 mg/mL tissue concentration. Samples were homogenized using a handheld motorized homogenizer (Fisher Scientific, Waltham, MA) on ice and stored at -20°C until extraction and analysis. To report tissue concentrations, 1 gram of tissue was estimated to be 1 mL of volume.
Data set [6] has as its system C. parvum. Nature of the data set: IFN-γ KO mouse model of Cryptosporidium infection. The class given is in vivo, mice. Conditions: IFN-γ KO mice. As for the experimental part: Efficacy in female IFN-γ KO mice (B6.129S7-Ifngtm1Ts/J; Jackson Laboratories) aged 8–10 weeks was evaluated as previously described. Beginning on day 6 after infection, mice were dosed with 30 mg/kg BKI1318 suspended in 0.2 mL of vehicle, 15 mg/kg elacridar in 0.1 mL of vehicle followed 15 minutes later by 30 mg/kg BKI1318 in 0.1 mL of vehicle, or 0.2 mL of vehicle only once daily for 5 days. Fecal specimens were collected daily from each group and weighed. Each fecal sample was checked for luminescence on the day of collection, and the number of relative light units was determined and normalized to fecal sample weights.

Setting [7] is: cecum/colon, elacridar in Cecum/Colon.
[8] abbreviates: duodenum, elacridar in Duodenum.

Where two headings read alike, the source gives them in different places.

T1 sequence (P08183 whole entry): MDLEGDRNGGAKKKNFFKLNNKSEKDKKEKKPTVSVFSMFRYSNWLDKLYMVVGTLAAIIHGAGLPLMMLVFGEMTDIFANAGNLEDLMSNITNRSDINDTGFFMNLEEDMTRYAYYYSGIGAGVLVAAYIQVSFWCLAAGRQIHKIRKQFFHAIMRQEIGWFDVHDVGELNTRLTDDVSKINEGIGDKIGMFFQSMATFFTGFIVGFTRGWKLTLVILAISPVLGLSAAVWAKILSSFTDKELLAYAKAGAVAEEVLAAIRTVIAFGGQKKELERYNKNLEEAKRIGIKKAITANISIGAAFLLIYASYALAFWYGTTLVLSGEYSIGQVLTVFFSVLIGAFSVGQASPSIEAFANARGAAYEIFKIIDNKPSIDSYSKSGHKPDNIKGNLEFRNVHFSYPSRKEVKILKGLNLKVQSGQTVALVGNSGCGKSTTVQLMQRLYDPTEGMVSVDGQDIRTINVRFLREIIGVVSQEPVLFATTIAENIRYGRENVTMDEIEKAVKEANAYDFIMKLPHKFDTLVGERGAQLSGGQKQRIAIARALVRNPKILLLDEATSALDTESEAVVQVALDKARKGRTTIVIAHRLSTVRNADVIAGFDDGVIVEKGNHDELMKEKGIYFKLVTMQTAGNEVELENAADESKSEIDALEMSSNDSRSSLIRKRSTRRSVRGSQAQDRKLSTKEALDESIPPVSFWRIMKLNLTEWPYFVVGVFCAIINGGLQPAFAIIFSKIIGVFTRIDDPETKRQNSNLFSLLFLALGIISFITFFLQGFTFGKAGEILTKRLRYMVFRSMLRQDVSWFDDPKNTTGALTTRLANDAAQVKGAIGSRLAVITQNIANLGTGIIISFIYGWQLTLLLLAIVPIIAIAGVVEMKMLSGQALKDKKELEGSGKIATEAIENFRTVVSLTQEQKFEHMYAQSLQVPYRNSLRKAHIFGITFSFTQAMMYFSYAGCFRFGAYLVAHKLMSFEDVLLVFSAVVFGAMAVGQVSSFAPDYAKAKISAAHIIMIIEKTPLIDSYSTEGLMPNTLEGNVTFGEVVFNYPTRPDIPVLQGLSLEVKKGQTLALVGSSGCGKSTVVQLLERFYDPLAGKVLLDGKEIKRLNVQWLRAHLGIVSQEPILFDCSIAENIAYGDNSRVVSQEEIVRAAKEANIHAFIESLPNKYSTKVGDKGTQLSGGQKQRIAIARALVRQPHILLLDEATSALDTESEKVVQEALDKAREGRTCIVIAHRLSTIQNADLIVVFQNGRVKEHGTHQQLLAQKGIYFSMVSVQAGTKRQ

The term EC50 denotes the concentration at which the effect is half-maximal. For orientation: solubility means the concentration that dissolves in the medium under given conditions. As a reminder, the Papp A→B is the apparent permeability from the apical to the basolateral side of a cell layer. For orientation: Papp B→A means how fast a substance crosses the layer from the basolateral side. For the compound `CCOc1ccc2cc(-c3nn(CC4CCN(C)CC4)c4ncnc(N)c34)ccc2c1` [BKI1294], in the data set on Cryptosporidium parvum (Cryptosporidium parvum, HCT-8, in vitro, read-out: C. parvum EC50), the EC50 turned out to be 2700 nM. Besides, the solubility in [1] was above 100 µM. In addition, in data set [2] (Caco-2 assay, A→B for BKI 1294, read-out: Percent recovery), the recovery at 120 min, 5 µM came out at 62%. Besides, in [2] (Caco-2, 5 µM, 120 minutes), the Papp A→B at 120 min, 5 µM came to 12.7 ×10⁻⁶ cm/s and the Papp B→A at 120 min, 5 µM was determined as 22.6 ×10⁻⁶ cm/s. In addition, the “P-gp Substrate Classification” value on P-gp was “Negative”. Also, the “Reduction of C. parvum levels over the course of the study” value with C. parvum [3] (hollow fiber model, polarized HCT-8 cells) was > 3 orders of magnitude. Further, the “Reduction in C. parvum level by 24 hours after the final dose, on day 4” value in the data set on C. parvum [3] (hollow fiber, once per day for 4 days, BKI1294 80 µM, BKI1369 40 µM) is above 6 log. For the same compound, the “C. parvum reduction in mouse model of cryptosporidiosis” value in the data set on C. parvum [4] is reported as above 2 log. The “Efficacy in neonatal mouse model of Cryptosporidium infection” value in the data set with Cryptosporidium is recorded as “efficacious”.

Turning to `CC(C)NCC(O)COc1cccc2ccccc12` (stereo not drawn) [Propranolol, reference compound], the Papp A→B at 120 min, 5 µM in data set [2] (Caco-2, 5 µM, 120 minutes) turned out to be 23.2 ×10⁻⁶ cm/s.

For `C[C@H]1O[C@@H](O[C@H]2[C@@H](O)C[C@H](O[C@H]3[C@@H](O)C[C@H](O[C@H]4CC[C@@]5(C)[C@H](CC[C@@H]6[C@@H]5C[C@@H](O)[C@]5(C)[C@@H](C7=CC(=O)OC7)CC[C@]65O)C4)O[C@@H]3C)O[C@@H]2C)C[C@H](O)[C@@H]1O` [digoxin, reference compound], the “P-gp Substrate Classification” value at P-gp was “Positive”.

By Cmax is commonly meant the highest concentration seen after dosing. As a reminder, the Tmax is the time at which the peak concentration occurs. With `COc1cc2c(cc1OC)CN(CCc1ccc(NC(=O)c3cccc4c(=O)c5cccc(OC)c5[nH]c34)cc1)CC2` [elacridar, reference compound], the “Effect on C. parvum levels” value with Cryptosporidium parvum (nonpolarized HCT-8 cells, compound alone) was “no effect”. Besides, the AUC(0-t) in data set [5] (setting [7]) came out at 12.6 ± 8.5 µM·h; in [5] (setting [8]), 118 ± 4.9 µM·h; in data set [5] (ileum, elacridar in Ileum), 170 ± 45.7 µM·h; in data set [5] (jejunum, elacridar in Jejunum), 104 ± 21.4 µM·h. The Cmax came out at 3.3 ± 3.1 µM in [5] (setting [7]); 61.2 µM in data set [5] (setting [8]); 35.2 µM in data set [5] (ileum, elacridar in Ileum); 32.6 µM in data set [5] (jejunum, elacridar in Jejunum). In addition, the Tmax in data set [5] (setting [7]) stood at 6 h; in data set [5] (setting [8]), 0.6 h; in [5] (ileum, elacridar in Ileum), 1.7 h; in [5] (jejunum, elacridar in Jejunum), 0.6 h. Also, in the data set with C. parvum [3] (hollow fiber model, compound alone, 80 µM once daily), the “Effect on C. parvum levels/growth” value is reported as “no effect”. In the data set on C. parvum [6], the “Effect on Cryptosporidium infection, administered alone” value is reported as “no effect”.

Source of the values: article PMC6736360, “P-Glycoprotein–Mediated Efflux Reduces the In Vivo Efficacy of a Therapeutic Targeting the Gastrointestinal Parasite Cryptosporidium” (The Journal of Infectious Diseases, 2019).
